“Also recorded” adds a separate entry of the source. Where two headings read alike, the source gives them in different places. Marks after values point to notes of the source that are not given here.
Assays:
[1] = Fe and Zn content in the serum and liver samples; assay type: in vivo, Gallus gallus; conditions: intra-amniotic 1 mL/egg on day 17, at hatch, mean ± SEM, n=8
Procedure: (§1) The pure resveratrol and pterostilbene were individually diluted in 18 MΩ H2O. The intra-amniotic administration followed the methodology previously described. On the 17th day of embryonic development, the eggs with viable embryos (n=60) were randomly allocated into 6 groups (n=10) with a similar weight frequency distribution. For the intra-amniotic treatment, 1 mL of solution per egg was injected into the amniotic fluid (via candling) with the aid of a 21-gauge needle. After the procedure, the injection sites were sealed with cellophane tape, and the eggs were distributed into six groups: (1) no injection; (2) 18 MΩ H2O; (3) 5% inulin; (4) 5% resveratrol; (5) 5% pterostilbene; and (6) synergistic: 4.75% resveratrol and 0.25% pterostilbene. […] The eggs were equally distributed in each incubator location to reduce possible allocation bias. Upon hatching (21 days), the hatchlings were euthanized by CO2 exposure, and the blood, liver, heart, pectoral muscle, small intestine and cecum were obtained.
The serum (50 μL) and liver (0.5 g) samples were mixed with 3.0 mL of a 60:40 (v/v) solution of nitric acid (HNO3) and perchloric acid (HClO4) and incubated overnight. After this, the samples were heated for 2 hours at 120° C. and added to 0.25 mL of 40 μg/g yttrium (internal standard), and the block temperature was increased to 145° C. for 2 h and then 190° C. for 10 min. At the end of these procedures, the samples were cooled, diluted to a total volume of 20 mL, mixed and transferred into autosampler tubes for analysis (inductively coupled plasma atomic emission spectrometer) (Thermo, Franklin, MA, USA).

[2] = tested on: Liver Ferritin; experiment: Liver ferritin; assay type: in vivo, Gallus gallus; conditions: intra-amniotic 1 mL/egg on day 17, at hatch, mean ± SEM, n=5
Procedure: as §1

[3] = tested on: duodenal tissue (villi, crypts, goblet cells); experiment: Morphometric examination of duodenal tissue; assay type: in vivo, Gallus gallus; conditions: intra-amniotic 1 mL/egg on day 17, at hatch, mean ± SEM, n=5; for Depth of Crypts (μm) / Mucus Layer Width (μm) / Villus Diameter (μm) / Villus Length (μm): duodenum; for Crypt Goblet Cell Number / Goblet Cell Diameter (μM) / Villus Goblet Cell Type Number, Acidic / Villus Goblet Cell Type Number, Mixed / Villus Goblet Cell Type Number, Neutral: small intestine
Procedure: as §1
Villus epithelium analysis was conducted as previously published. The duodenal samples were soaked in buffered formaldehyde (4% (v/v)), dehydrated, cleared and embedded in paraffin. Numerous sections were cut with a thickness of 5 μm and put on slides. The sections were deparaffinized in xylene, after which they were rehydrated in a series of graded alcohol. Finally, the slides were stained with Alcian Blue-periodic acid-Schiff and investigated under a light microscopy. The variables were assessed (light microscope, EPIX XCAP software, standard version, Olympus, Waltham, MA, USA) for the following: villus length, villus diameter, depth of crypts, goblet cell diameter, crypt goblet cell number and villus goblet cells type number (acidic, neutral or mixed). Four segments for each biological sample and five biological samples per treatment group were examined. The goblet cells were enumerated at 10 villi/sample, and the means were calculated for statistical analysis.

[4] = tested on: hemoglobin (Hb); experiment: Blood hemoglobin (Hb) after intra-amniotic administration; assay type: in vivo, Gallus gallus; conditions: intra-amniotic 1 mL/egg on day 17; blood at hatch (day 21); mean ± SEM
Procedure: as §1
Blood was collected using micro-hematocrit heparin-coated capillary tubes (Fisher Scientific, Waltham, MA, USA). The hemoglobin (Hb) concentration was assessed spectrophotometrically using the QuantiChrom™ Hb Assay (DIHB-250, BioAssay Systems, Hayward, CA, USA) and according to specific instructions.

[5] = Glycogen in pectoral muscle; assay type: in vivo, Gallus gallus; conditions: intra-amniotic 1 mL/egg on day 17, at hatch, mean ± SEM, n=8
Procedure: as §1

[6] = absorption in the gut lumen, literature refs 11, 12 (Kapetanovic et al.; Walle), cited from earlier work
[7] = Body weight, cecum weight and cecum:body weight ratio; assay type: in vivo, Gallus gallus; conditions: intra-amniotic 1 mL/egg on day 17; at hatch (day 21); mean ± SEM, n=8
Procedure: as §1

[8] = tested on: cecal microbiome; experiment: 16S rRNA gene sequencing of the cecal microbiota; assay type: in vivo, Gallus gallus; conditions: cecal content at hatch, n=5; 5% inulin vs all other experimental groups (p<0.01); 5% pterostilbene vs 18 MΩ H2O control (p<0.05); stilbene groups among each other
Procedure: as §1
As was formerly described, cecal samples were used to extract microbial genomic DNA (PowerSoil DNA isolation kit, MoBio Laboratories Ltd., Carlsbad, CA, USA). […] The PCR products were purified (Beckman Coulter, Atlanta, GA, USA) and quantified (Quant-iT PicoGreen dsDNA quantitation kit, Invitrogen, Carlsbad, CA, USA). […]
The 16S rRNA gene sequence analysis was performed using QIIME2 as previously described. The sequence reads were demultiplexed by per-sample barcodes, and the Divisive Amplicon Denoising Algorithm (DADA2) was used to correct the Illumina-sequenced amplicon read errors. […] The alpha and β diversity were calculated from samples containing at least 9.800 sequences. The alpha diversity parameter, a measure of the richness of the bacterial community, was calculated using the Shannon Index, and the beta diversity was assessed by a Jaccard similarity distance matrix. […]
The values in this paper were expressed as means and standard errors of the means (SEM). […] The results were analyzed by Analysis of Variance (ANOVA). […]

Row | Compound | Liver Iron (μg/g) [1] | Liver Zinc (μg/g) [1] | Serum Iron (μg/g) [1] | Serum Zinc (μg/g) [1] | Liver Ferritin (A.U.) [2] | Depth of Crypts (μm) [3] | Mucus Layer Width (μm) [3] | Villus Diameter (μm) [3] | Villus Length (μm) [3] | Crypt Goblet Cell Number [3] | Goblet Cell Diameter (μM) [3] | Villus Goblet Cell Type Number, Acidic [3] | Villus Goblet Cell Type Number, Mixed [3] | Villus Goblet Cell Type Number, Neutral [3] | Hb (g/dL) [4] | Glycogen (mg/g) [5] | Body Weight Average (g) [7] | Cecum Weight Average (g) [7] | Cecum:Body Weight Ratio [7] | other results
1 | COc1cc(/C=C/c2ccc(O)cc2)cc(OC)c1 [5% Pterostilbene, Pterostilbene] | 37.43 ± 1.52 ^ab μg/g | 14.43 ± 0.49 ^b μg/g | 2.94 ± 0.44 ^b μg/g | 1.33 ± 0.20 ^a μg/g | 1.011 ± 0.351^bc A.U. | 66.41 ± 1.19^a μm | 3.76 ± 0.10^e μm | 81.33 ± 4.95^a μm | 451.58 ± 11.21^b μm | 10.04 ± 0.18 ^c | 7.81 ± 0.07 ^b μM | 10.78 ± 0.22 ^ab | 0.28 ± 0.05 ^b | 0.00 ± 0.00 ^b | 8.95 ± 0.77^a g/dL | 0.033 ± 0.010^a mg/g | 46.7 ± 0.7^a g | 0.6 ± 0.1^a g | 0.013 ± 0.001^a | bioavailability [6]: 80%; bioavailability ([6]; listed as pterostilbenes): about 80%
2 | inulin [5% Inulin, reference compound] | 48.96 ± 4.39 ^a μg/g | 18.23 ± 0.88 ^ab μg/g | 2.76 ± 0.33 ^b μg/g | 0.97 ± 0.08 ^bc μg/g | 0.148 ± 0.005^c A.U. | 51.30 ± 1.07^b μm | 5.27 ± 0.13^c μm | 44.57 ± 0.79^d μm | 262.54 ± 3.76^d μm | 12.27 ± 0.33 ^a | 7.12 ± 0.06 ^d μM | 10.65 ± 0.25 ^ab | 0.02 ± 0.01 ^e | 0.00 ± 0.00 ^b | 8.86 ± 0.69^a g/dL | 0.029 ± 0.005^a mg/g | 49.7 ± 0.9^a g | 0.6 ± 0.1^a g | 0.012 ± 0.001^a | β diversity of the cecal microbiome (Jaccard distances), comparison between groups [8]: statistical differences; also recorded: differed

Reference: patent US20240148671A1, “METHODS FOR IMPROVING POULTRY HEALTH” (CORNELL UNIVERSITY, priority 2021, published 2024)
